# Laboratory results: the supplement of paper PMC10307832
# Assays:
# Assay in all cases: relative viability (nuclei count vs DMSO), 5 days (fraction); higher = more cells survive
# [1] = tested on: NCI-H1993
# How it was run: (§1)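 Dosing by pin tool came one day after lung cancer cell lines were seeded in 1536-well plates, using either one drug or a fixed anchor-drug dose plus five library-drug doses (not always all listed) in √10 steps. After 5 days, nuclei were counted on 4× images. Relative viability is treated-well nuclei count divided by vehicle-well nuclei count, and values are medians of duplicate plates.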
# [2] = tested on: ABC-1
# How it was run: as §1
# [3] = tested on: HARA
# How it was run: as §1
# [4] = tested on: LCLC-103H
# How it was run: as §1
# [5] = tested on: SK-LU-1
# How it was run: as §1
# [6] = tested on: HCC-15
# How it was run: as §1
# [7] = tested on: NCI-H1755
# How it was run: as §1
# [8] = tested on: 201T
# How it was run: as §1
# [9] = tested on: LC-2-ad
# How it was run: as §1
# [10] = tested on: NCI-H1355
# How it was run: as §1
# [11] = tested on: H3255
# How it was run: as §1
# [12] = tested on: NCI-H727
# How it was run: as §1
# [13] = tested on: HCC-827
# How it was run: as §1
# [14] = tested on: LOU-NH91
# How it was run: as §1
# [15] = tested on: RERF-LC-KJ
# How it was run: as §1
# [16] = tested on: PC-3 [JPC-3]
# How it was run: as §1
# [17] = tested on: NCI-H23
# How it was run: as §1
# [18] = tested on: BEN
# How it was run: as §1
# [19] = tested on: NCI-H2228
# How it was run: as §1
# [20] = tested on: LU99A
# How it was run: as §1
# [21] = tested on: NCI-H2085
# How it was run: as §1
# [22] = tested on: CAL-12T
# How it was run: as §1
# [23] = tested on: NCI-H1666
# How it was run: as §1
# [24] = tested on: NCI-H2170
# How it was run: as §1
smiles,measurement,setting,value
Nc1cccc2c1CN(C1CCC(=O)NC1=O)C2=O (stereo unspecified) [Lenalidomide] + C[C@]1(O)C[C@@H](c2nc(-c3ccc4ccc(-c5ccccc5)nc4c3)c3c(N)nccn32)C1 [Linsitinib] (partner 1 µM),relative viability,[1]; first compound 0.253 µM,0.708
same,relative viability,[1]; first compound 0.8 µM,0.706
same,relative viability,[1]; first compound 2.53 µM,0.73
same,relative viability,[1]; first compound 8 µM,0.708
same,relative viability,[2]; first compound 0.253 µM,0.589
same,relative viability,[2]; first compound 0.8 µM,0.732
same,relative viability,[2]; first compound 2.53 µM,0.71
same,relative viability,[2]; first compound 8 µM,0.85
same,relative viability,[3]; first compound 0.253 µM,0.992
same,relative viability,[3]; first compound 0.8 µM,0.91
same,relative viability,[3]; first compound 2.53 µM,1.18
same,relative viability,[3]; first compound 8 µM,0.906
same,relative viability,[4]; first compound 0.253 µM,1.11
same,relative viability,[4]; first compound 0.8 µM,1.09
same,relative viability,[4]; first compound 2.53 µM,1.05
same,relative viability,[4]; first compound 8 µM,0.86
same,relative viability,[5]; first compound 0.253 µM,1.1
same,relative viability,[5]; first compound 0.8 µM,1.01
same,relative viability,[5]; first compound 2.53 µM,1.19
same,relative viability,[5]; first compound 8 µM,1.16
same,relative viability,[6]; first compound 0.253 µM,0.91
same,relative viability,[6]; first compound 2.53 µM,0.975
same,relative viability,[6]; first compound 8 µM,0.895
same,relative viability,[7]; first compound 0.253 µM,0.968
same,relative viability,[7]; first compound 0.8 µM,1.01
same,relative viability,[7]; first compound 2.53 µM,0.983
same,relative viability,[7]; first compound 8 µM,0.897
same,relative viability,[8]; first compound 0.253 µM,1.08
same,relative viability,[8]; first compound 0.8 µM,1.18
same,relative viability,[8]; first compound 2.53 µM,1.05
same,relative viability,[8]; first compound 8 µM,0.908
same,relative viability,[9]; first compound 0.253 µM,0.837
same,relative viability,[9]; first compound 0.8 µM,0.926
same,relative viability,[9]; first compound 2.53 µM,0.862
same,relative viability,[9]; first compound 8 µM,0.833
same,relative viability,[10]; first compound 0.253 µM,0.827
same,relative viability,[10]; first compound 0.8 µM,0.748
same,relative viability,[10]; first compound 2.53 µM,0.864
same,relative viability,[10]; first compound 8 µM,0.53
same,relative viability,[11]; first compound 0.253 µM,0.996
same,relative viability,[11]; first compound 0.8 µM,0.957
same,relative viability,[11]; first compound 2.53 µM,1.06
same,relative viability,[11]; first compound 8 µM,0.871
same,relative viability,[12]; first compound 0.253 µM,0.311
same,relative viability,[12]; first compound 2.53 µM,0.308
same,relative viability,[12]; first compound 8 µM,0.288
same,relative viability,[13]; first compound 0.253 µM,0.939
same,relative viability,[13]; first compound 0.8 µM,0.944
same,relative viability,[13]; first compound 2.53 µM,0.995
same,relative viability,[13]; first compound 8 µM,1.07
same,relative viability,[14]; first compound 0.253 µM,0.912
same,relative viability,[14]; first compound 0.8 µM,0.977
same,relative viability,[14]; first compound 2.53 µM,0.922
same,relative viability,[14]; first compound 8 µM,0.847
same,relative viability,[15]; first compound 0.253 µM,0.905
same,relative viability,[15]; first compound 0.8 µM,0.79
same,relative viability,[15]; first compound 2.53 µM,0.892
same,relative viability,[15]; first compound 8 µM,0.943
same,relative viability,[16]; first compound 0.253 µM,0.969
same,relative viability,[16]; first compound 0.8 µM,0.923
same,relative viability,[16]; first compound 2.53 µM,1
same,relative viability,[16]; first compound 8 µM,1.09
same,relative viability,[17]; first compound 0.253 µM,0.452
same,relative viability,[17]; first compound 0.8 µM,0.493
same,relative viability,[17]; first compound 2.53 µM,0.688
same,relative viability,[17]; first compound 8 µM,0.45
same,relative viability,[18]; first compound 0.253 µM,1.03
same,relative viability,[18]; first compound 0.8 µM,0.861
same,relative viability,[18]; first compound 2.53 µM,1.09
same,relative viability,[18]; first compound 8 µM,0.781
same,relative viability,[19]; first compound 0.253 µM,0.598
same,relative viability,[19]; first compound 0.8 µM,0.774
same,relative viability,[19]; first compound 2.53 µM,0.802
same,relative viability,[19]; first compound 8 µM,0.639
same,relative viability,[20]; first compound 0.253 µM,0.51
same,relative viability,[20]; first compound 0.8 µM,0.554
same,relative viability,[20]; first compound 2.53 µM,0.466
same,relative viability,[20]; first compound 8 µM,0.352
same,relative viability,[21]; first compound 0.253 µM,0.876
same,relative viability,[21]; first compound 0.8 µM,0.877
same,relative viability,[21]; first compound 2.53 µM,1.03
same,relative viability,[21]; first compound 8 µM,0.933
same,relative viability,[22]; first compound 0.253 µM,0.821
same,relative viability,[22]; first compound 0.8 µM,0.83
same,relative viability,[22]; first compound 2.53 µM,1.15
same,relative viability,[22]; first compound 8 µM,0.787
same,relative viability,[23]; first compound 0.253 µM,0.921
same,relative viability,[23]; first compound 0.8 µM,0.652
same,relative viability,[23]; first compound 2.53 µM,0.853
same,relative viability,[23]; first compound 8 µM,0.833
Nc1cccc2c1CN(C1CCC(=O)NC1=O)C2=O (stereo unspecified) [Lenalidomide] + CC1(C)CCC(c2ccc(Cl)cc2)=C(CN2CCN(c3ccc(C(=O)NS(=O)(=O)c4ccc(N[C@H](CCN5CCOCC5)CSc5ccccc5)c(S(=O)(=O)C(F)(F)F)c4)cc3)CC2)C1 [Navitoclax] (partner 0.5 µM),relative viability,[1]; first compound 0.253 µM,0.906
same,relative viability,[1]; first compound 0.8 µM,0.855
same,relative viability,[1]; first compound 2.53 µM,0.88
same,relative viability,[1]; first compound 8 µM,0.797
same,relative viability,[3]; first compound 0.253 µM,1.14
same,relative viability,[3]; first compound 0.8 µM,1.12
same,relative viability,[3]; first compound 2.53 µM,1.19
same,relative viability,[3]; first compound 8 µM,1.2
same,relative viability,[5]; first compound 0.253 µM,0.729
same,relative viability,[5]; first compound 0.8 µM,0.946
same,relative viability,[5]; first compound 2.53 µM,1.45
same,relative viability,[5]; first compound 8 µM,0.924
same,relative viability,[6]; first compound 0.253 µM,0.698
same,relative viability,[6]; first compound 2.53 µM,0.814
same,relative viability,[6]; first compound 8 µM,0.676
same,relative viability,[7]; first compound 0.253 µM,0.994
same,relative viability,[7]; first compound 0.8 µM,1.01
same,relative viability,[7]; first compound 2.53 µM,1.01
same,relative viability,[7]; first compound 8 µM,0.745
same,relative viability,[8]; first compound 0.253 µM,1.21
same,relative viability,[8]; first compound 0.8 µM,1.22
same,relative viability,[8]; first compound 2.53 µM,1.19
same,relative viability,[8]; first compound 8 µM,1.22
same,relative viability,[9]; first compound 0.253 µM,0.448
same,relative viability,[9]; first compound 0.8 µM,0.421
same,relative viability,[9]; first compound 2.53 µM,0.478
same,relative viability,[9]; first compound 8 µM,0.44
same,relative viability,[10]; first compound 0.253 µM,1
same,relative viability,[10]; first compound 0.8 µM,0.737
same,relative viability,[10]; first compound 2.53 µM,0.889
same,relative viability,[10]; first compound 8 µM,0.561
same,relative viability,[24]; first compound 0.253 µM,0.552
same,relative viability,[24]; first compound 0.8 µM,0.595
same,relative viability,[24]; first compound 2.53 µM,0.593
same,relative viability,[24]; first compound 8 µM,0.481
same,relative viability,[11]; first compound 0.253 µM,0.519
same,relative viability,[11]; first compound 0.8 µM,0.395
same,relative viability,[11]; first compound 2.53 µM,0.589
same,relative viability,[11]; first compound 8 µM,0.523
same,relative viability,[12]; first compound 0.253 µM,0.449
same,relative viability,[12]; first compound 2.53 µM,0.387
same,relative viability,[12]; first compound 8 µM,0.345
same,relative viability,[13]; first compound 0.253 µM,1.06
same,relative viability,[13]; first compound 0.8 µM,0.977
same,relative viability,[13]; first compound 2.53 µM,1.01
same,relative viability,[13]; first compound 8 µM,1.07
same,relative viability,[14]; first compound 0.253 µM,0.614
same,relative viability,[14]; first compound 0.8 µM,0.631
same,relative viability,[14]; first compound 2.53 µM,0.673
same,relative viability,[14]; first compound 8 µM,0.692
same,relative viability,[15]; first compound 0.253 µM,0.959
same,relative viability,[15]; first compound 0.8 µM,0.736
same,relative viability,[15]; first compound 2.53 µM,1.02
same,relative viability,[15]; first compound 8 µM,1.09
same,relative viability,[16]; first compound 0.253 µM,0.752
same,relative viability,[16]; first compound 0.8 µM,0.771
same,relative viability,[16]; first compound 2.53 µM,0.863
same,relative viability,[16]; first compound 8 µM,0.734
same,relative viability,[17]; first compound 0.253 µM,0.876
same,relative viability,[17]; first compound 0.8 µM,0.917
same,relative viability,[17]; first compound 2.53 µM,0.999
same,relative viability,[17]; first compound 8 µM,0.649
same,relative viability,[18]; first compound 0.253 µM,0.0599
same,relative viability,[18]; first compound 0.8 µM,0.0573
same,relative viability,[18]; first compound 2.53 µM,0.0663
same,relative viability,[18]; first compound 8 µM,0.0611
same,relative viability,[19]; first compound 0.253 µM,0.821
same,relative viability,[19]; first compound 0.8 µM,0.711
same,relative viability,[19]; first compound 2.53 µM,0.949
same,relative viability,[19]; first compound 8 µM,0.905
same,relative viability,[20]; first compound 0.253 µM,0.853
same,relative viability,[20]; first compound 0.8 µM,0.963
same,relative viability,[20]; first compound 2.53 µM,0.925
same,relative viability,[20]; first compound 8 µM,0.502
same,relative viability,[21]; first compound 0.253 µM,1.25
same,relative viability,[21]; first compound 0.8 µM,1.16
same,relative viability,[21]; first compound 2.53 µM,1.26
same,relative viability,[21]; first compound 8 µM,1.2
same,relative viability,[22]; first compound 0.253 µM,1.4
same,relative viability,[22]; first compound 0.8 µM,1.33
same,relative viability,[22]; first compound 2.53 µM,1.7
same,relative viability,[22]; first compound 8 µM,1.3
same,relative viability,[23]; first compound 0.253 µM,0.915
same,relative viability,[23]; first compound 0.8 µM,0.893
same,relative viability,[23]; first compound 2.53 µM,0.837
same,relative viability,[23]; first compound 8 µM,0.856
